The structures appear in SMILES notation. Where two headings read alike, the source gives them in different places.

For experiment [1], the system named is T-Rex 293 cell line SC3 cells lacking increased expression of androgen receptor protein. Put plainly: Cellular growth inhibition assay, T-Rex 293 SC3 cells without doxycycline (CellTiter-Glo, 72 hours). The experiment is classed as cell-based. As to conditions: T-Rex 293 cell line SC3 cells not exposed to doxycycline (lacking increased androgen receptor expression). Put shortly:
(§1)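 Growth inhibition is measured in an inducible AR-expressing T-Rex 293 clone, SC3, cultured with or without 10 ng/mL doxycycline in hormone-depleted medium. Test compounds are applied for 72 hours. GI50 values derive from CellTiter-Glo 2.0 signal fitted by four-parameter regression.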

Another experiment concerns VCaP cells. Put plainly: Cellular growth inhibition assay for VCaP cells (CellTiter-Glo, 72 hours). The class given is cell-based, human. Put shortly: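 Luminescent viability signal after 72 h of compound exposure gave GI50 values by four-parameter nonlinear regression. Compounds were added in 0.5% DMSO to cells plated 24 h earlier at 5000/well in DMEM containing 10% FBS.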
(In general: Cellular ATP, detected with luciferase, serves as a proxy for viable cell number.)

A further experiment has as its system T47D cells. Put plainly: Cellular growth inhibition assay for T47D cells (CellTiter-Glo, 72 hours). The note with it: 72 hours treatment. The class given is cell-based, human. Put shortly:
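Growth inhibition as GI50, fitted with four parameters to CellTiter-Glo luminescence after 72 h of compound exposure (0.5% DMSO). Cells were T47D, grown in insulin-supplemented (0.2 units/mL) DMEM with 10% FBS and treated one day post-seeding.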

Experiment [2] has as its system T-Rex 293 cell line SC3 cells having increased expression of androgen receptor protein due to exposure to doxycycline. Put plainly: Cellular growth inhibition assay, T-Rex 293 SC3 cells with doxycycline (CellTiter-Glo, 72 hours). The class given is cell-based. As to conditions: T-Rex 293 SC3 cells with increased androgen receptor expression due to doxycycline (10 ng/mL). Put shortly: as §1

Take `Cc1sc2c(c1C)C(c1ccc(C#CC3CC4(CCCN(c5ccc(C(=O)N[C@H]6CC[C@H](Oc7ccc(C#N)c(Cl)c7)CC6)nn5)C4)C3)cc1)=NCc1nnc(C)n1-2` (stereo partly drawn) [I-420]: the GI50 (as a rule, the concentration at which growth is held to half of that of the control) in experiment [1] (72 h) is over 3 µM; in the experiment on VCaP cells (Homo sapiens, VCaP, 72 h) it was under 0.5 µM; with T47D cells (Homo sapiens, T47D, 72 h), 1.5 to 3 µM; in experiment [2] (72 h) it was under 0.5 µM.
In the case of `Cc1sc2c(c1C)C(c1ccc(C#CC3CC4(C3)CN(c3ccc(C(=O)N[C@H]5CC[C@H](Oc6ccc(C#N)c(Cl)c6)CC5)nn3)C4)cc1)=NCc1nnc(C)n1-2` [I-421], the GI50 in experiment [1] (72 h) was under 0.5 µM; in the experiment on VCaP cells (Homo sapiens, VCaP, 72 h), under 0.5 µM; with T47D cells (Homo sapiens, T47D, 72 h), 0.5 to 1.5 µM; in experiment [2] (72 h), under 0.5 µM.
Turning to `Cc1sc2c(c1C)C(c1ccc(N3CCC4(CCCN(c5ccc(C(=O)N[C@H]6CC[C@H](Oc7ccc(C#N)c(Cl)c7)CC6)nn5)C4)CC3)cc1)=NCc1nnc(C)n1-2` [I-422], the GI50 in experiment [1] (72 h) is over 3 µM; in the experiment with VCaP cells (Homo sapiens, VCaP, 72 h) it was under 0.5 µM; with T47D cells (Homo sapiens, T47D, 72 h), 0.5 to 1.5 µM; in experiment [2] (72 h) it was under 0.5 µM.
Take `Cc1sc2c(c1C)C(c1ccc(C(C)(C)C3CC4(CCCN(c5ccc(C(=O)N[C@H]6CC[C@H](Oc7ccc(C#N)c(Cl)c7)CC6)nn5)C4)C3)cc1)=N[C@@H](C)c1nnc(C)n1-2` (stereo partly drawn) [I-423]: the GI50 was 1.5 to 3 µM in experiment [1] (72 h); over 3 µM in the experiment on VCaP cells (Homo sapiens, VCaP, 72 h); 0.5 to 1.5 µM with T47D cells (Homo sapiens, T47D, 72 h); under 0.5 µM in experiment [2] (72 h).
On to `Cc1sc2c(c1C)C(c1ccc(OCC3CC4(CCCN(c5ccc(C(=O)N[C@H]6CC[C@H](Oc7ccc(C#N)c(Cl)c7)CC6)nn5)C4)C3)nc1)=N[C@@H](C)c1nnc(C)n1-2` (stereo partly drawn) [I-424], for which the GI50 in experiment [1] was over 3 µM; in the experiment on VCaP cells (Homo sapiens, VCaP, 72 h), under 0.5 µM; in the experiment on T47D cells (Homo sapiens, T47D, 72 h), 0.5 to 1.5 µM; in experiment [2] (72 h), under 0.5 µM.
With `Cc1sc2c(c1C)C(c1ccc(OCC3CC4(CCCN(c5ccc(C(=O)N[C@H]6CC[C@H](Oc7ccc(C#N)c(Cl)c7)CC6)nn5)C4)C3)nc1)=N[C@@H](C)c1nnc(C)n1-2` (stereo partly drawn) [I-425], the GI50 in experiment [1] is 0.5 to 1.5 µM; with VCaP cells, under 0.5 µM; with T47D cells, 0.5 to 1.5 µM; in experiment [2], under 0.5 µM.
Regarding `Cc1sc2c(c1C)C(c1ccc(C#CC3CC4(C3)CN(c3ccc(C(=O)N[C@H]5CC[C@H](Oc6ccc(C#N)c(Cl)c6)CC5)nn3)C4)nc1)=N[C@@H](C)c1nnc(C)n1-2` [I-426], the GI50 in experiment [1] (72 h) was under 0.5 µM; in the experiment on VCaP cells (Homo sapiens, VCaP, 72 h), under 0.5 µM; in the experiment with T47D cells (Homo sapiens, T47D, 72 h), 0.5 to 1.5 µM; in experiment [2] (72 h), under 0.5 µM.
On to `Cc1sc2c(c1C)C(c1ccc(N3CCC4(CCCN(c5ccc(C(=O)N[C@H]6CC[C@H](Oc7ccc(C#N)c(Cl)c7)CC6)nn5)C4)CC3)cc1)=N[C@@H](C)c1nnc(C)n1-2` [I-427], for which the GI50 in experiment [1] was 0.5 to 1.5 µM; in the experiment on VCaP cells (Homo sapiens, VCaP, 72 h) it was under 0.5 µM; in the experiment with T47D cells, 0.5 to 1.5 µM; in experiment [2] (72 h), under 0.5 µM.
On to `Cc1sc2c(c1C)C(c1ccc(N3CCC4(CCCN(c5ccc(C(=O)N[C@H]6CC[C@H](Oc7ccc(C#N)c(Cl)c7)CC6)nn5)C4)CC3)nc1)=N[C@@H](C)c1nnc(C)n1-2` [I-428], for which the GI50 in experiment [1] (72 h) was over 3 µM; with VCaP cells (Homo sapiens, VCaP, 72 h), under 0.5 µM; in the experiment on T47D cells (Homo sapiens, T47D, 72 h) it was 0.5 to 1.5 µM; in experiment [2] (72 h), under 0.5 µM.
In the case of `Cc1sc2c(c1C)C(c1ccc(N3CCC4(CCCN(c5ccc(C(=O)N[C@H]6CC[C@H](Oc7ccc(C#N)c(Cl)c7)CC6)nn5)C4)CC3)cc1)=N[C@@H](C)c1nnc(C)n1-2` [I-429], the GI50 in experiment [1] is over 3 µM; with VCaP cells it was under 0.5 µM; in the experiment with T47D cells, over 3 µM; in experiment [2] it was under 0.5 µM.
In the case of `Cc1sc2c(c1C)C(c1ccc(N3CCC4(CC3)CCN(c3ccc(C(=O)N[C@H]5CC[C@H](Oc6ccc(C#N)c(Cl)c6)CC5)nn3)C4)cc1)=N[C@@H](C)c1nnc(C)n1-2` [I-430], the GI50 (in experiment [1]; in the experiment with VCaP cells; with T47D cells; in experiment [2]) was under 0.5 µM throughout.
In the case of `Cc1sc2c(c1C)C(c1ccc(OC3CC4(CCN(c5ccc(C(=O)N[C@H]6CC[C@H](Oc7ccc(C#N)c(Cl)c7)CC6)nn5)CC4)C3)nc1)=N[C@@H](C)c1nnc(C)n1-2` [I-433], the concentration for 50% growth inhibition (GI50) in experiment [1] is 0.5 to 1.5 µM; in the experiment with VCaP cells, over 3 µM; in the experiment on T47D cells (Homo sapiens, T47D, 72 h), 0.5 to 1.5 µM; in experiment [2] (72 h) it was under 0.5 µM.
For `Cc1sc2c(c1C)C(c1ccc(N3CC(C4CCN(c5ccc(C(=O)N[C@H]6CC[C@H](Oc7ccc(C#N)c(Cl)c7)CC6)nn5)CC4)C3)cc1)=N[C@@H](C)c1nnc(C)n1-2` [I-434], the GI50 was under 0.5 µM in experiment [1] (72 h); under 0.5 µM in the experiment on VCaP cells (Homo sapiens, VCaP, 72 h); 0.5 to 1.5 µM with T47D cells (Homo sapiens, T47D, 72 h); under 0.5 µM in experiment [2] (72 h).
As for `Cc1sc2c(c1C)C(c1ccc(OC3CC4(C3)CC3(CCN(c5ccc(C(=O)N[C@H]6CC[C@H](Oc7ccc(C#N)c(Cl)c7)CC6)nn5)CC3)C4)cc1)=N[C@@H](C)c1nnc(C)n1-2` [I-435], the GI50 in experiment [1] (72 h) is over 3 µM; in the experiment on VCaP cells (Homo sapiens, VCaP, 72 h), under 0.5 µM; in the experiment with T47D cells (Homo sapiens, T47D, 72 h), over 3 µM; in experiment [2] (72 h), under 0.5 µM.
With `Cc1sc2c(c1C)C(c1ccc(OC3CC4(C3)CC3(CCN(c5ccc(C(=O)N[C@H]6CC[C@H](Oc7ccc(C#N)c(Cl)c7)CC6)nn5)CC3)C4)nc1)=N[C@@H](C)c1nnc(C)n1-2` [I-436], the GI50 in experiment [1] (72 h) is over 3 µM; with VCaP cells (Homo sapiens, VCaP, 72 h), under 0.5 µM; in the experiment on T47D cells (Homo sapiens, T47D, 72 h), 0.5 to 1.5 µM; in experiment [2] (72 h), under 0.5 µM.
Take `Cc1sc2c(c1C)C(c1ccc(C3CC(N4CCN(c5ccc(C(=O)N[C@H]6CC[C@H](Oc7ccc(C#N)c(Cl)c7)CC6)nn5)CC4)C3)cc1)=N[C@@H](Cc1ncco1)c1nnc(C)n1-2` (stereo partly drawn) [I-437]: the GI50 in experiment [1] (72 h) is under 0.5 µM; with VCaP cells (Homo sapiens, VCaP, 72 h) it was under 0.5 µM; in the experiment on T47D cells (Homo sapiens, T47D, 72 h), under 0.5 µM; in experiment [2] (72 h), under 0.5 µM.
Turning to `Cc1sc2c(c1C)C(c1ccc(CCC3CC4(CCCC(c5ccc(C(=O)N[C@H]6CC[C@H](Oc7ccc(C#N)c(Cl)c7)CC6)nn5)C4)C3)nc1)=N[C@@H](Cc1ncco1)c1nnc(C)n1-2` (stereo partly drawn) [I-438], the concentration for 50% growth inhibition (GI50) in experiment [1] (72 h) is under 0.5 µM; in the experiment with VCaP cells (Homo sapiens, VCaP, 72 h), under 0.5 µM; with T47D cells (Homo sapiens, T47D, 72 h), 0.5 to 1.5 µM; in experiment [2] (72 h), under 0.5 µM.
Regarding `Cc1sc2c(c1C)C(c1ccc(CCC3CC4(CCCC(c5ccc(C(=O)N[C@H]6CC[C@H](Oc7ccc(C#N)c(Cl)c7)CC6)nn5)C4)C3)nc1)=N[C@@H](Cc1ncco1)c1nnc(C)n1-2` (stereo partly drawn) [I-439], the GI50 in experiment [1] was under 0.5 µM; with VCaP cells, 0.5 to 1.5 µM; with T47D cells, 0.5 to 1.5 µM; in experiment [2], under 0.5 µM.
For `Cc1sc2c(c1C)C(c1ccc(C(C)(C)CN3CC4(CCCN(c5ccc(C(=O)N[C@H]6CC[C@H](Oc7ccc(C#N)c(Cl)c7)CC6)nn5)C4)C3)cc1)=N[C@@H](Cc1ncco1)c1nnc(C)n1-2` [I-440], the GI50 is 0.5 to 1.5 µM in experiment [1] (72 h); under 0.5 µM with VCaP cells (Homo sapiens, VCaP, 72 h); 0.5 to 1.5 µM in the experiment on T47D cells (Homo sapiens, T47D, 72 h); under 0.5 µM in experiment [2] (72 h).
As for `Cc1sc2c(c1C)C(c1ccc(COC3(C)CC4(CN(c5ccc(C(=O)N[C@H]6CC[C@H](Oc7ccc(C#N)c(Cl)c7)CC6)nn5)C4)C3)cc1)=N[C@@H](Cc1ncco1)c1nnc(C)n1-2` [I-441], the GI50 in experiment [1] (72 h) is under 0.5 µM; in the experiment on VCaP cells (Homo sapiens, VCaP, 72 h), under 0.5 µM; with T47D cells (Homo sapiens, T47D, 72 h) it was under 0.5 µM; in experiment [2] (72 h), under 0.5 µM.
In the case of `Cc1sc2c(c1C)C(c1ccc(-c3coc(C4CCN(c5ccc(C(=O)N[C@H]6CC[C@H](Oc7ccc(C#N)c(Cl)c7)CC6)nn5)CC4)n3)cc1)=NC(Cc1ncco1)c1nnc(C)n1-2` (stereo partly drawn) [I-442], the GI50 (in experiment [1]; in the experiment on VCaP cells; in the experiment with T47D cells; in experiment [2]) was under 0.5 µM each time.
